{
  "source": "patent US10765114B2",
  "about": "“4-amino-6-(pyridyl and 2-substitutedphenyl)-picolinates and 6-amino-2-(pyridyl and 2-substitutedphenyl)-pyrimidine-4-carboxylates and their use as herbicides” (Dow AgroSciences LLC, priority 2013, dated 2020)",
  "assay_in_all_cases": "Post-Emergent Test III (Wheat and Barley)",
  "key": {"[1]": {"test_system": "VERPE (Persian speedwell)", "type": "in vivo, Veronica persica", "details": "for Visual Growth Reduction (%) 21 Days After Application, VERPE: VERPE bird's-eye speedwell (Veronica persica), post-emergent", "procedure": "(§1) Seeds of the desired test plant species were planted in Sun Gro MetroMix® 306 planting mixture, which typically has a pH of 6.0 to 6.8 and an organic matter content of about 30 percent, in plastic pots with a surface area of 103.2 square centimeters (cm^2). When required to ensure good germination and healthy plants, a fungicide treatment and/or other chemical or physical treatment was applied. The plants were grown for 7-36 days in a greenhouse with an approximate 14 h photoperiod which was maintained at about 18° C. during the day and 17° C. during the night. Nutrients and water were added on a regular basis and supplemental lighting was provided with overhead metal halide 1000-Watt lamps as necessary. The plants were employed for testing when they reached the second or third true leaf stage.\n(§2) A weighed amount, determined by the highest rate to be tested, of each test compound was placed in a 25 mL glass vial and was dissolved in 4 mL of a 97:3 v/v mixture of acetone and DMSO to obtain concentrated stock solutions. […] The concentrated stock solutions obtained were diluted with 20 mL of an aqueous mixture containing acetone, water, isopropyl alcohol, DMSO, Agri-Dex crop oil concentrate, and X-77 surfactant in a 48:39:10:1.5:1.5:0.02 v/v ratio to obtain spray solutions containing the highest application rates. Additional application rates were obtained by serial dilution of 12 mL of the high rate solution into a solution containing 2 mL of 97:3 v/v mixture of acetone and DMSO and 10 mL of an aqueous mixture containing acetone, water, isopropyl alcohol, DMSO, Agri-Dex crop oil concentrate, and X-77 surfactant in a 48:39:10:1.5:1.5:0.02 v/v ratio to obtain ½×, ¼×, ⅛× and 1/16× rates of the high rate. Compound requirements are based upon a 12 mL application volume at a rate of 187 liters per hectare (L/ha). Formulated compounds were applied to the plant material with an overhead Mandel track sprayer equipped with 8002E nozzles calibrated to deliver 187 L/ha over an application area of 0.503 square meters at a spray height of 18 inches (43 cm) above the average plant canopy height. Control plants were sprayed in the same manner with the solvent blank.\n(§3) The treated plants and control plants were placed in a greenhouse as described above and watered by subirrigation to prevent wash-off of the test compounds. After 21 dAYS, the condition of the test plants as compared with that of the untreated plants was determined visually and scored on a scale of 0 to 100 percent where 0 corresponds to no injury and 100 corresponds to complete kill and presented as indicated in Table A.\n(§4) By applying the well-accepted probit analysis as described by J. Berkson in Journal of the American Statistical Society, 48, 565 (1953) and by D. Finney in “Probit Analysis” Cambridge University Press (1952), herbicidal injury of a specific compound at various rates can be used to calculate GR10, GR20, GR50, GR80 and GR90 values, which are defined as growth reduction factors that correspond to the effective dose of herbicide required to provide plant growth reduction (GR) of 10 percent, 20 percent, 50 percent, 80 percent and 90 percent, respectively. Probit analysis was applied to data collected from multiple dose rates of individual compounds utilizing the procedures explained in the following examples. The analysis of those dose rates is captured in the following tables."}, "[2]": {"test_system": "HORSS", "type": "in vivo", "details": "crop; for Visual Growth Reduction (%) 21 Days After Application, HORSS: HORSS barley (Hordeum vulgare), post-emergent", "procedure,_shortened": "(§5)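 Seedlings are raised in a greenhouse at about 18/17 °C with a 14 h photoperiod until the second or third true leaf. They are then sprayed overhead at 187 L/ha over a range of rates down to 1/16× the highest. After 21 days, injury is scored visually, 0–100%.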"}, "[3]": {"test_system": "TRZSS", "type": "in vivo", "details": "crop; for Visual Growth Reduction (%) 21 Days After Application, TRZSS: TRZSS wheat (Triticum aestivum), post-emergent", "procedure,_shortened": "as §5"}, "[4]": {"test_system": "BRSSS", "type": "in vivo", "details": "for Visual Growth Reduction (%) 21 Days After Application, BRSSS: BRSSS oil seed rape (Brassica napus), post-emergent", "procedure,_shortened": "as §5"}, "[5]": {"test_system": "PAPRH (common poppy)", "type": "in vivo, Papaver rhoeas", "details": "for Visual Growth Reduction (%) 21 Days After Application, PAPRH: PAPRH common poppy (Papaver rhoeas), post-emergent", "procedure": "as §1, §2, §3, §4"}, "[6]": {"test_system": "KCHSC (kochia)", "type": "in vivo, Kochia scoparia", "procedure,_shortened": "as §5"}, "[7]": {"test_system": "POLCO (wild buckwheat)", "type": "in vivo, Polygonum convolvulus", "details": "for Visual Growth Reduction (%) 21 Days After Application, POLCO: POLCO wild buckwheat (Polygonum convolvulus), post-emergent", "procedure": "as §1, §2, §3, §4"}},
  "data": [
    {"smiles": "COC(=O)c1nc(-c2ccc(Br)nc2)c(F)c(N)c1Cl", "note": "[Compound 22, methyl 4-amino-6′-bromo-5-chloro-3-fluoro-[2,3′-bipyridine]-6-carboxylate]", "values": [
      {"measurement": "Visual Growth Reduction (%) 21 Days After Application, VERPE", "setting": "[1]; 17.5 g ai/ha", "value": "D (60-74)"},
      {"measurement": "Visual Growth Reduction (%) 21 Days After Application, VERPE", "setting": "[1]; 35 g ai/ha", "value": "C (75-84)"},
      {"measurement": "Visual Growth Reduction (%) 21 Days After Application, VERPE", "setting": "[1]; 70 g ai/ha", "value": "A (95-100)"},
      {"measurement": "GR50, VERPE", "setting": "[1]; VERPE, growth reduction of 50%, probit analysis, 21 days", "value": 9, "unit": "g ai/ha"},
      {"measurement": "GR80, VERPE", "setting": "[1]; VERPE, growth reduction of 80%, probit analysis, 21 days", "value": 28, "unit": "g ai/ha"},
      {"measurement": "GR90, VERPE", "setting": "[1]; VERPE, growth reduction of 90%, probit analysis, 21 days", "value": 50, "unit": "g ai/ha"},
      {"measurement": "Visual Growth Reduction (%) 21 Days After Application, HORSS", "setting": "[2]; 17.5 g ai/ha", "value": "B (85-94)"},
      {"measurement": "Visual Growth Reduction (%) 21 Days After Application, HORSS", "setting": "[2]; 35 g ai/ha", "value": "B (85-94)"},
      {"measurement": "Visual Growth Reduction (%) 21 Days After Application, HORSS", "setting": "[2]; 70 g ai/ha", "value": "A (95-100)"},
      {"measurement": "GR10, HORSS", "setting": "[2]; HORSS barley, growth reduction of 10%, probit analysis, 21 days", "value": 1, "unit": "g ai/ha"},
      {"measurement": "GR20, HORSS", "setting": "[2]; HORSS barley, growth reduction of 20%, probit analysis, 21 days", "value": 1, "unit": "g ai/ha"},
      {"measurement": "Visual Growth Reduction (%) 21 Days After Application, TRZSS", "setting": "[3]; 17.5 g ai/ha", "value": "C (75-84)"},
      {"measurement": "Visual Growth Reduction (%) 21 Days After Application, TRZSS", "setting": "[3]; 35 g ai/ha", "value": "B (85-94)"},
      {"measurement": "Visual Growth Reduction (%) 21 Days After Application, TRZSS", "setting": "[3]; 70 g ai/ha", "value": "B (85-94)"},
      {"measurement": "GR10, TRZSS", "setting": "[3]; TRZSS wheat, growth reduction of 10%, probit analysis, 21 days", "value": 1, "unit": "g ai/ha"},
      {"measurement": "GR20, TRZSS", "setting": "[3]; TRZSS wheat, growth reduction of 20%, probit analysis, 21 days", "value": 1, "unit": "g ai/ha"},
      {"measurement": "Visual Growth Reduction (%) 21 Days After Application, BRSSS", "setting": "[4]; 17.5 g ai/ha", "value": "D (60-74)"},
      {"measurement": "Visual Growth Reduction (%) 21 Days After Application, BRSSS", "setting": "[4]; 35 g ai/ha", "value": "B (85-94)"},
      {"measurement": "Visual Growth Reduction (%) 21 Days After Application, BRSSS", "setting": "[4]; 70 g ai/ha", "value": "B (85-94)"},
      {"measurement": "GR50, BRSSS", "setting": "[4]; BRSSS, growth reduction of 50%, probit analysis, 21 days", "value": 4, "unit": "g ai/ha"},
      {"measurement": "GR80, BRSSS", "setting": "[4]; BRSSS, growth reduction of 80%, probit analysis, 21 days", "value": 20, "unit": "g ai/ha"},
      {"measurement": "GR90, BRSSS", "setting": "[4]; BRSSS, growth reduction of 90%, probit analysis, 21 days", "value": 46, "unit": "g ai/ha"},
      {"measurement": "Visual Growth Reduction (%) 21 Days After Application, PAPRH", "setting": "[5]; 17.5 g ai/ha", "value": "A (95-100)"},
      {"measurement": "Visual Growth Reduction (%) 21 Days After Application, PAPRH", "setting": "[5]; 35 g ai/ha", "value": "A (95-100)"},
      {"measurement": "Visual Growth Reduction (%) 21 Days After Application, PAPRH", "setting": "[5]; 70 g ai/ha", "value": "A (95-100)"},
      {"measurement": "GR50, PAPRH", "setting": "[5]; PAPRH, growth reduction of 50%, probit analysis, 21 days", "value": 1, "unit": "g ai/ha"},
      {"measurement": "GR80, PAPRH", "setting": "[5]; PAPRH, growth reduction of 80%, probit analysis, 21 days", "value": 1, "unit": "g ai/ha"},
      {"measurement": "GR90, PAPRH", "setting": "[5]; PAPRH, growth reduction of 90%, probit analysis, 21 days", "value": 1, "unit": "g ai/ha"},
      {"measurement": "pest or weed control at 17.5 g/ha", "setting": "[6]; Bassia scoparia, post-emergence, 504 h, KCHSC kochia (Kochia scoparia), 17.5 g ai/ha, post-emergent, read-out: Visual Growth Reduction (%) 21 Days After Application, KCHSC", "value": "95 to 100", "unit": "%"},
      {"measurement": "pest or weed control at 35 g/ha", "setting": "[6]; Bassia scoparia, post-emergence, 504 h, KCHSC kochia (Kochia scoparia), 35 g ai/ha, post-emergent, read-out: Visual Growth Reduction (%) 21 Days After Application, KCHSC", "value": "95 to 100", "unit": "%"},
      {"measurement": "pest or weed control at 70 g/ha", "setting": "[6]; Bassia scoparia, post-emergence, 504 h, KCHSC kochia (Kochia scoparia), 70 g ai/ha, post-emergent, read-out: Visual Growth Reduction (%) 21 Days After Application, KCHSC", "value": "95 to 100", "unit": "%"},
      {"measurement": "GR50, KCHSC", "setting": "[6]; KCHSC, growth reduction of 50%, probit analysis, 21 days", "value": 3, "unit": "g ai/ha"},
      {"measurement": "GR80, KCHSC", "setting": "[6]; KCHSC, growth reduction of 80%, probit analysis, 21 days", "value": 8, "unit": "g ai/ha"},
      {"measurement": "GR90, KCHSC", "setting": "[6]; KCHSC, growth reduction of 90%, probit analysis, 21 days", "value": 14, "unit": "g ai/ha"},
      {"measurement": "Visual Growth Reduction (%) 21 Days After Application, POLCO", "setting": "[7]; 17.5 g ai/ha", "value": "E (45-59)"},
      {"measurement": "Visual Growth Reduction (%) 21 Days After Application, POLCO", "setting": "[7]; 35 g ai/ha", "value": "E (45-59)"},
      {"measurement": "Visual Growth Reduction (%) 21 Days After Application, POLCO", "setting": "[7]; 70 g ai/ha", "value": "D (60-74)"},
      {"measurement": "GR50, POLCO", "setting": "[7]; POLCO, growth reduction of 50%, probit analysis, 21 days", "value": 26, "unit": "g ai/ha"},
      {"measurement": "GR80, POLCO", "setting": "[7]; POLCO, growth reduction of 80%, probit analysis, 21 days", "value": ">140", "unit": "g ai/ha"},
      {"measurement": "GR90, POLCO", "setting": "[7]; POLCO, growth reduction of 90%, probit analysis, 21 days", "value": ">140", "unit": "g ai/ha"}
    ]}
  ]
}
